Data: the supplement of paper PMC13380429

What was measured:
Details in all cases: 72 h
Caco-2 [1] = test: cell viability relative to DMSO; higher = less toxic
Calu-3 [2] = test: as above
HepG2 [3] = test: as above
U2OS [4] = test: as above
Vero E6 [5] = test: as above
Caco-2 [6] = test: relative viability EC50 (midpoint between 100% and the lowest measured viability); higher = less toxic
Calu-3 [7] = test: as above
HepG2 [8] = test: as above
U2OS [9] = test: as above
Vero E6 [10] = test: as above
Caco-2 [11] = test: drug sensitivity score (DSS) for viability; higher = more toxic; extreme values may be limits of the assay
Calu-3 [12] = test: as above
HepG2 [13] = test: as above
U2OS [14] = test: as above
Vero E6 [15] = test: as above

Structure (SMILES)	cell viability (Caco-2 [1]; 1 nM) [%]	cell viability (Caco-2 [1]; 10 nM) [%]	cell viability (Caco-2 [1]; 100 nM) [%]	cell viability (Caco-2 [1]; 1000 nM) [%]	cell viability (Caco-2 [1]; 10000 nM) [%]	cell viability (Calu-3 [2]; 1 nM) [%]	cell viability (Calu-3 [2]; 10 nM) [%]	cell viability (Calu-3 [2]; 100 nM) [%]	cell viability (Calu-3 [2]; 1000 nM) [%]	cell viability (Calu-3 [2]; 10000 nM) [%]	cell viability (HepG2 [3]; 1 nM) [%]	cell viability (HepG2 [3]; 10 nM) [%]	cell viability (HepG2 [3]; 100 nM) [%]	cell viability (HepG2 [3]; 1000 nM) [%]	cell viability (HepG2 [3]; 10000 nM) [%]	cell viability (U2OS [4]; 1 nM) [%]	cell viability (U2OS [4]; 10 nM) [%]	cell viability (U2OS [4]; 100 nM) [%]	cell viability (U2OS [4]; 1000 nM) [%]	cell viability (U2OS [4]; 10000 nM) [%]	cell viability (Vero E6 [5]; 1 nM) [%]	cell viability (Vero E6 [5]; 10 nM) [%]	cell viability (Vero E6 [5]; 100 nM) [%]	cell viability (Vero E6 [5]; 1000 nM) [%]	cell viability (Vero E6 [5]; 10000 nM) [%]	relative viability EC50 (Caco-2 [6]) [µM]	relative viability EC50 (Calu-3 [7]) [µM]	relative viability EC50 (HepG2 [8]) [µM]	relative viability EC50 (U2OS [9]) [µM]	relative viability EC50 (Vero E6 [10]) [µM]	drug sensitivity score (Caco-2 [11])	drug sensitivity score (Calu-3 [12])	drug sensitivity score (HepG2 [13])	drug sensitivity score (U2OS [14])	drug sensitivity score (Vero E6 [15])
CC1=NN(c2ccc(C(=O)O)cc2)C(=O)C1=Cc1ccc(-c2cc(C)c(C)cc2[N+](=O)[O-])o1 [C646]	87.3	90.5	101	94	98.1	106	98.1	89.3	89.6	98.9	90	102	92.5	93.7	90.5	102	95.6	98.8	94.9	92.9	97.3	102	100	100	99	> 10	> 10	> 10	> 10	> 10	0	0.4	0	0	0
Nc1nc(-c2ccc(Cl)c(Cl)c2)c(-c2ccncc2)s1 [CGH2466]	91.8	86.1	102	99.7	95.9	109	100	107	95.7	107	96.5	104	117	106	112	96.5	99.9	96.3	100	90.1	87.1	95.3	100	93.9	93.9	> 10	> 10	> 10	> 10	> 10	0	0	0	0	0
CN1CCN(c2ccc(/C=C(\C#N)c3ccccc3Br)cc2)CC1 [DG-172]	102	99.5	100	95.5	88.5	114	102	104	100	90.6	101	99.9	104	105	82.1	105	101	106	100	94.8	106	108	104	105	91.3	> 10	> 10	> 10	> 10	> 10	0.2	0	0.3	0	0
Cc1nc2c(c(=O)[nH]1)CSCC2 [DR-2313]	92.6	88.9	90.1	95.7	97.4	105	92.2	95	95.5	91.9	99.8	101	98.3	108	94.6	102	99.1	99.9	97.1	99.1	98	100	97.8	94.6	108	> 10	> 10	> 10	> 10	> 10	0	0	0	0	0
CC(C)C[C@H](NC(=O)OCc1ccccc1)C(=O)N[C@@H](C[C@@H]1CCNC1=O)C(O)S(=O)(=O)O (stereo not given in full) [GC376 sodium]	97.2	92.6	96.7	92.7	108	105	92.2	99.9	104	96.1	101	99.8	97	102	95.4	90.4	101	97.3	100	108	90.3	104	93.2	102	108	> 10	> 10	> 10	> 10	> 10	0	0	0	0	0
O=C(O)c1ccc(N2N=C(Cc3ccccc3)/C(=C\c3ccc(-c4ccccc4F)o3)C2=O)cc1 [GS-143]	103	104	99.2	93.8	87.5	102	99.1	101	105	99.8	107	110	95.4	95.8	105	105	106	101	104	98.8	106	99	99.9	101	82.7	> 10	> 10	> 10	> 10	> 10	0.2	0	0	0	0.3
Cc1ccc(C(=O)Nc2ccc(CN3CCN(C)CC3)c(C(F)(F)F)c2)cc1C#Cc1cnc2[nH]ncc2c1 [GZD824]	102	98.6	86.7	59	2.4	96.7	86.8	76.8	45.9	3.7	106	98.8	71.2	27.1	0.4	99.5	104	77.5	32.5	0.3	103	102	86.5	19.1	0.2	1.17	0.497	0.297	0.42	0.365	10.1	13.9	17.2	15.4	16.6
